This is an account of results in ChEMBL document CHEMBL1144628, “6-Hydrazinopurine 2'-methyl ribonucleosides and their 5'-monophosphate prodrugs as potent hepatitis C virus inhibitors” (Bioorg Med Chem Lett, 2007).

One series has as its system Hepatitis C virus. Kind of series: Antiviral activity against HCV by replicon assay. Format: functional, organism-based, Hepacivirus hominis.
For a further series, the system named is Plasma. Kind of series: Stability in human plasma. The format is ADME, cell-free.
Series [1] can be described thus: Stability in human simulated gastric fluid. The format is ADME, Stomach. Conditions: simulated gi fluid.
The nature of series [2]: Stability in human simulated intestinal fluid at 1 mg/mL after 30 mins. The format is ADME. Conditions: read-out: Stability.
A short description of series [3]: Stability in human simulated intestinal fluid at 1 mg/mL after 60 mins. The settings on record: read-out: Stability. Format: ADME.
Series [4] in a line: Stability in human simulated intestinal fluid at 1 mg/mL after 2 hrs. The format is ADME. Conditions: simulated gi fluid.

The compound `CN(NS(C)(=O)=O)c1ncnc2c1ncn2[C@@H]1O[C@H](CO)[C@@H](O)[C@@]1(C)O` displayed an EC50 in the series with Hepatitis C virus of 300 µM.

In the case of `COC(=O)CNP(=O)(OC[C@H]1O[C@@H](n2cnc3c(N(C)NS(C)(=O)=O)nc(N)nc32)[C@](C)(O)[C@@H]1O)Oc1ccccc1` (stereo not given in full), the EC50 in the series on Hepatitis C virus is 22 µM. For the same compound, the Stability entry (in the series on Plasma; in series [1]) was “Stable” throughout. Further, the remaining at 0.5 h, 1 mg/mL in series [2] is 0%. In series [3], the remaining at 1 h, 1 mg/mL was 0%.

Consider `CC(NP(=O)(OC[C@H]1O[C@@H](n2cnc3c(N(C)NS(C)(=O)=O)ncnc32)[C@](C)(O)[C@@H]1O)Oc1ccccc1)C(=O)OCc1ccccc1` (stereo not given in full), for which the EC50 with Hepatitis C virus was found to be 2.9 µM. In addition, the Stability entry (in the series on Plasma; in series [1]) was “Stable” each time. Moreover, the remaining at 0.5 h, 1 mg/mL in series [2] is 0%. Besides, the remaining at 1 h, 1 mg/mL in series [3] is 0%.

Turning to `COC(=O)C(C)NP(=O)(OC[C@H]1O[C@@H](n2cnc3c(N(C)NS(C)(=O)=O)nc(N)nc32)[C@](C)(O)[C@@H]1O)Oc1ccc(Cl)cc1` (stereo not given in full), in the series with Hepatitis C virus, a half-maximal response (EC50) required 0.8 µM.

Regarding `CC(C)OC(=O)C(C)NP(=O)(OC[C@H]1O[C@@H](n2cnc3c(N(C)NS(C)(=O)=O)ncnc32)[C@](C)(O)[C@@H]1O)Oc1ccc(Cl)cc1` (stereo not given in full), in the series with Hepatitis C virus, the midpoint of the response, the EC50, lay at 2.5 µM. The Stability result (in the series with Plasma; in series [1]) was “Stable” throughout. In addition, the remaining at 0.5 h, 1 mg/mL in series [2] is 67%. Also, the remaining at 1 h, 1 mg/mL in series [3] was 48%.

As to `COC(=O)C(C)(C)NP(=O)(OC[C@H]1O[C@@H](n2cnc3c(N(C)NS(C)(=O)=O)ncnc32)[C@](C)(O)[C@@H]1O)Oc1ccc(Cl)cc1` (stereo not given in full), it took 1.4 µM to reach a half-maximal effect in the series on Hepatitis C virus (EC50). The Stability entry (with Plasma; in series [1]; in series [4]) was “Stable” throughout. In addition, in series [2], the remaining at 0.5 h, 1 mg/mL was 100%. Besides, the remaining at 1 h, 1 mg/mL in series [3] is 100%.

`COC(=O)C(C)(C)NP(=O)(OC[C@H]1O[C@@H](n2cnc3c(N(C)NS(C)(=O)=O)nc(N)nc32)[C@](C)(O)[C@@H]1O)Oc1ccc(Cl)cc1` (stereo not given in full): in the series with Hepatitis C virus, the EC50 came to 0.26 µM. Also, the Stability result (with Plasma; in series [1]; in series [4]) was “Stable” each time. Also, in series [2], the remaining at 0.5 h, 1 mg/mL is 100%. Further, the remaining at 1 h, 1 mg/mL in series [3] is 100%.

On to `CC(NP(=O)(OC[C@H]1O[C@@H](n2cnc3c(N(C)NS(C)(=O)=O)nc(N)nc32)[C@](C)(O)[C@@H]1O)Oc1ccccc1)C(=O)OCc1ccccc1` (stereo not given in full), for which a half-maximal response in the series on Hepatitis C virus (EC50) required 2.2 µM. The Stability entry (with Plasma; in series [1]) was “Stable” in each case. For the same compound, the remaining at 0.5 h, 1 mg/mL in series [2] was 0%. Besides, the remaining at 1 h, 1 mg/mL in series [3] is 0%.

Compound `CC(NP(=O)(OC[C@H]1O[C@@H](n2cnc3c(N(C)NS(C)(=O)=O)ncnc32)[C@](C)(O)[C@@H]1O)Oc1ccc(Cl)cc1)C(=O)OCc1ccccc1` (stereo not given in full) yielded an EC50 in the series with Hepatitis C virus of 0.68 µM. The Stability result (with Plasma; in series [1]) was “Stable” throughout. In series [2], the remaining at 0.5 h, 1 mg/mL is 0%. Besides, the remaining at 1 h, 1 mg/mL in series [3] was 0%.

In the case of `COC(=O)CNP(=O)(OC[C@H]1O[C@@H](n2cnc3c(N(C)NS(C)(=O)=O)nc(N)nc32)[C@](C)(O)[C@@H]1O)Oc1ccc(Cl)cc1` (stereo not given in full), the EC50 in the series with Hepatitis C virus stood at 8.9 µM. Further, the Stability result (in the series with Plasma; in series [1]) was “Stable” each time. Further, the remaining at 0.5 h, 1 mg/mL in series [2] is 0%. Moreover, the remaining at 1 h, 1 mg/mL in series [3] is 0%.

For `COC(=O)C(C)NP(=O)(OC[C@H]1O[C@@H](n2cnc3c(N(C)NS(C)(=O)=O)nc(N)nc32)[C@](C)(O)[C@@H]1O)Oc1ccccc1` (stereo not given in full), it took 1.2 µM to reach a half-maximal effect with Hepatitis C virus (EC50).

In the case of `COC(=O)C(C)NP(=O)(OC[C@H]1O[C@@H](n2cnc3c(N(C)NS(C)(=O)=O)ncnc32)[C@](C)(O)[C@@H]1O)Oc1ccc(Cl)cc1` (stereo not given in full), in the series on Hepatitis C virus, the half-maximal effective concentration (EC50) amounted to 2.6 µM.

In the series on Hepatitis C virus, `COC(=O)CNP(=O)(OC[C@H]1O[C@@H](n2cnc3c(N(C)NS(C)(=O)=O)ncnc32)[C@](C)(O)[C@@H]1O)Oc1ccc(Cl)cc1` (stereo not given in full) gave an EC50 of 39 µM. In addition, the Stability result (in the series with Plasma; in series [1]) was “Stable” in each case. For the same compound, in series [2], the remaining at 0.5 h, 1 mg/mL is 0%. Moreover, the remaining at 1 h, 1 mg/mL in series [3] is 0%.

Compound `CN(NS(C)(=O)=O)c1nc(N)nc2c1ncn2[C@@H]1O[C@H](COP(=O)(OCCSC(=O)C(C)(C)C)OCCSC(=O)C(C)(C)C)[C@@H](O)[C@@]1(C)O` had an EC50 in the series with Hepatitis C virus of 0.024 µM.

Compound `COC(=O)CNP(=O)(OC[C@H]1O[C@@H](n2cnc3c(N(C)NS(C)(=O)=O)ncnc32)[C@](C)(O)[C@@H]1O)Oc1ccccc1` (stereo not given in full) gave an EC50 with Hepatitis C virus of 220 µM. The Stability result (in the series with Plasma; in series [1]) was “Stable” throughout. The remaining at 0.5 h, 1 mg/mL in series [2] was 0%. For the same compound, the remaining at 1 h, 1 mg/mL in series [3] was 0%.

Take `COC(=O)C(C)NP(=O)(OC[C@H]1O[C@@H](n2cnc3c(N(C)NS(C)(=O)=O)ncnc32)[C@](C)(O)[C@@H]1O)Oc1ccccc1` (stereo not given in full): the EC50 with Hepatitis C virus worked out at 26 µM.

Regarding `CN(NS(C)(=O)=O)c1nc(N)nc2c1ncn2[C@@H]1O[C@H](CO)[C@@H](O)[C@@]1(C)O`, in the series with Hepatitis C virus, the EC50 was found to be 92 µM.

Compound `CC(NP(=O)(OC[C@H]1O[C@@H](n2cnc3c(N(C)NS(C)(=O)=O)nc(N)nc32)[C@](C)(O)[C@@H]1O)Oc1ccc(Cl)cc1)C(=O)OCc1ccccc1` (stereo not given in full) registered an EC50 with Hepatitis C virus of 0.11 µM. For the same compound, the Stability result (with Plasma; in series [1]) was “Stable” each time. Besides, in series [2], the remaining at 0.5 h, 1 mg/mL is 0%. In addition, the remaining at 1 h, 1 mg/mL in series [3] was 0%.

For `CN(NS(C)(=O)=O)c1ncnc2c1ncn2[C@@H]1O[C@H](COP(=O)(OCCSC(=O)C(C)(C)C)OCCSC(=O)C(C)(C)C)[C@@H](O)[C@@]1(C)O`, in the series with Hepatitis C virus, the EC50 turned out to be 0.06 µM.

On to `CC(C)OC(=O)C(C)NP(=O)(OC[C@H]1O[C@@H](n2cnc3c(N(C)NS(C)(=O)=O)nc(N)nc32)[C@](C)(O)[C@@H]1O)Oc1ccc(Cl)cc1` (stereo not given in full), for which a half-maximal effect with Hepatitis C virus (EC50) was put at 0.27 µM. For the same compound, the Stability result (in the series with Plasma; in series [1]) was “Stable” in each case. The remaining at 0.5 h, 1 mg/mL in series [2] was 61%. Further, the remaining at 1 h, 1 mg/mL in series [3] was 37%.

For orientation: EC50 means the concentration at which the effect is half-maximal. The low end stands for higher potency in that assay, the high end for lower potency in that assay.
